Laboratory results taken from US8183351B2, “Avermectin derivatives” (Bayer Cropscience AG, priority 2006, dated 2012).

How the values were obtained:
Format in all cases: in vivo
[1] = tested on: Lucilia cuprina larvae; test: Lucilia cuprina test (LUCICU); conditions: treated horsemeat
Description: Lucilia cuprina Test (LUCICU)
Description for Examples A and B
(§1) • Solvent: Dimethyl sulphoxide
To produce a suitable preparation of active compound, 1 part by weight of active compound is mixed with the stated amount of water and the concentrate is diluted with water to the desired concentration.
Containers containing horsemeat treated with the active compound preparation of the desired concentration are populated with Lucilia cuprina larvae.
After the desired period of time, the kill in % is determined. 100% means that all larvae have been killed; 0% means that none of the larvae have been killed.
(§2) In this test, for example, the following compounds of the preparation examples show good activity: see table

[2] = tested on: larvae of the mustard beetle (Phaedon cochleariae); test: Phaedon test (PHAECO spray treatment); conditions: 4 ppm active compound, sprayed Chinese cabbage discs
Description: Phaedon Test (PHAECO Spray Treatment)
• Solvents: 78 parts by weight of acetone • 1.5 parts by weight of dimethylformamide • Emulsifier: 0.5 part by weight of alkylaryl polyglyycol ether
After the desired period of time, the effect in % is determined. 100% means that all beetle larvae have been killed; 0% means that none of the beetle larvae have been killed.

[3] = tested on: adult Musca domestica; test: Musca domestica test (MUSCDO); conditions: Example C, treated sponge
Description: Musca domestica Test (MUSCDO)
as §1
To produce a suitable preparation of active compound, 1 part by weight of active compound is mixed with the stated amount of water, and the concentrate is diluted with water to the desired concentration.
Containers containing a sponge treated with the preparation of active compound of the desired concentration are populated with adult Musca domestica.
After the desired period of time, the kill in % is determined. 100% means that all flies have been killed; 0% means that none of the flies have been killed.
as §2

[4] = tested on: caterpillars of the army worm (Spodoptera frugiperda); test: Spodoptera frugiperda test (SPODFR spray treatment); conditions: Example I; 4 ppm active compound; sprayed maize leaf discs
Description: Spodoptera frugiperda Test (SPODFR Spray Treatment)
• Solvents: 78.0 parts by weight of acetone • 1.5 parts by weight of dimethylformamide • Emulsifier: 0.5 part by weight of alkylaryl polyglyycol ether
After the desired period of time, the effect in % is determined. 100% means that all caterpillars have been killed; 0% means that none of the caterpillars have been killed.

[5] = tested on: unfed adult fleas (Ctenocephalides felis); test: Ctenocephalides felis; oral (CTECFE); conditions: Example J; 4 ppm active compound in citrated cattle blood, oral uptake
Description: Ctenocephalides felis; Oral (CTECFE)
as §1
To produce a suitable preparation of active compound, 1 part by weight of active compound is mixed with the stated amount of solvent. Part of the concentrate is diluted with citrated cattle blood, and the desired concentration is prepared.
20 unfed adult fleas (Ctenocephalides felis) are placed into a chamber whose top and bottom ends are closed with gauze. A metal cylinder whose bottom end is closed with parafilm is placed onto the chamber. The cylinder contains the blood/active compound preparation, which can be taken up by the fleas through the parafilm membrane. The blood is warmed to 37° C., but the flea chamber is at room temperature.
After the desired period of time, the kill in % is determined. 100% means that all fleas have been killed; 0% means that none of the fleas have been killed.
as §2

[6] = Example A, 0.8 ppm active compound
[7] = Example B, 0.16 ppm active compound

| SMILES | Kill rate in % after 2 days [1, 6] [%] | also measured |
| --- | --- | --- |
| CCC(C)C1OC2(C=CC1C)CC1CC(CC=C(C)C(OC3CC(OC)C(OC(=O)C(C)NC(C)=O)C(C)O3)C(C)C=CC=C3COC4C(O)C(C)=CC(C(=O)O1)C34O)O2 (mixture of isomers) [Example 54] | 80 | Kill rate in % after 7 days ([2]; Example G): 100% |
| CCC(C)C1OC2(C=CC1C)CC1CC(CC=C(C)C(OC3CC(OC)C(OC(=O)C(C)n4nc(OC)n(C)c4=O)C(C)O3)C(C)C=CC=C3COC4C(O)C(C)=CC(C(=O)O1)C34O)O2 (mixture of isomers) [Example 100] | 100 | – |
| CC[C@H](C)[C@H]1OC2(C=C[C@@H]1C)C[C@@H]1C[C@@H](C/C=C(\C)[C@@H](OC3CC(OC)C(OC(=O)C4CC4)C(C)O3)[C@@H](C)/C=C/C=C3\CO[C@@H]4[C@H](O)C(C)=CC(C(=O)O1)[C@]34O)O2 (stereo partly drawn) [Example 1, 4′-O-(cyclopropylcarbonyl)-avermectin B1 monosaccharide] | 100 | Kill rate in % after 7 days ([2]; Example D): 90% |
| CC[C@H](C)[C@H]1OC2(C=C[C@@H]1C)C[C@@H]1C[C@@H](C/C=C(\C)[C@@H](OC3CC(OC)C(OC(=O)CC(C)C)C(C)O3)[C@@H](C)/C=C/C=C3\CO[C@@H]4[C@H](O)C(C)=CC(C(=O)O1)[C@]34O)O2 (stereo partly drawn) [Example 4] | 100 | – |
| CC[C@H](C)[C@H]1OC2(C=C[C@@H]1C)C[C@@H]1C[C@@H](C/C=C(\C)[C@@H](OC3CC(OC)C(OC(=O)C(C)(C)C)C(C)O3)[C@@H](C)/C=C/C=C3\CO[C@@H]4[C@H](O)C(C)=CC(C(=O)O1)[C@]34O)O2 (stereo partly drawn) [Example 5] | 100 | – |
| CCC(=O)OC1C(C)OC(O[C@@H]2/C(C)=C/C[C@@H]3C[C@@H](CC4(C=C[C@H](C)[C@@H]([C@@H](C)CC)O4)O3)OC(=O)C3C=C(C)[C@@H](O)[C@H]4OC/C(=C\C=C\[C@@H]2C)[C@@]34O)CC1OC (stereo partly drawn) [Example 6] | 98 | – |
| CCC(C)C(=O)OC1C(C)OC(O[C@@H]2/C(C)=C/C[C@@H]3C[C@@H](CC4(C=C[C@H](C)[C@@H]([C@@H](C)CC)O4)O3)OC(=O)C3C=C(C)[C@@H](O)[C@H]4OC/C(=C\C=C\[C@@H]2C)[C@@]34O)CC1OC (stereo partly drawn) [Example 9] | 100 | – |
| CC[C@H](C)[C@H]1OC2(C=C[C@@H]1C)C[C@@H]1C[C@@H](C/C=C(\C)[C@@H](OC3CC(OC)C(OC(=O)Cc4ccsc4)C(C)O3)[C@@H](C)/C=C/C=C3\CO[C@@H]4[C@H](O)C(C)=CC(C(=O)O1)[C@]34O)O2 (stereo partly drawn) [Example 12] | 100 | – |
| CC[C@H](C)[C@H]1OC2(C=C[C@@H]1C)C[C@@H]1C[C@@H](C/C=C(\C)[C@@H](OC3CC(OC)C(OC(=O)Cc4cccs4)C(C)O3)[C@@H](C)/C=C/C=C3\CO[C@@H]4[C@H](O)C(C)=CC(C(=O)O1)[C@]34O)O2 (stereo partly drawn) [Example 13] | – | Kill rate in % after 2 days ([3]; 0.8 ppm active compound): 50% |
| CC[C@H](C)[C@H]1OC2(C=C[C@@H]1C)C[C@@H]1C[C@@H](C/C=C(\C)[C@@H](OC3CC(OC)C(OC(=O)C4(C)CC4)C(C)O3)[C@@H](C)/C=C/C=C3\CO[C@@H]4[C@H](O)C(C)=CC(C(=O)O1)[C@]34O)O2 (stereo partly drawn) [Example 15] | 100 | – |
| CC[C@H](C)[C@H]1OC2(C=C[C@@H]1C)C[C@@H]1C[C@@H](C/C=C(\C)[C@@H](OC3CC(OC)C(OC(=O)C4CCCC4)C(C)O3)[C@@H](C)/C=C/C=C3\CO[C@@H]4[C@H](O)C(C)=CC(C(=O)O1)[C@]34O)O2 (stereo partly drawn) [Example 16] | 100 | – |
| CC[C@H](C)[C@H]1OC2(CC[C@@H]1C)C[C@@H]1C[C@@H](C/C=C(\C)[C@@H](OC3CC(OC)C(OC(=O)Cn4ccnn4)C(C)O3)[C@@H](C)/C=C/C=C3\CO[C@@H]4[C@H](O)C(C)=CC(C(=O)O1)[C@]34O)O2 (stereo partly drawn) [Example 18] | – | Kill rate in % after 2 days [1, 7]: 100%; Kill rate in % after 7 days ([2]; Example G): 100% |
| CC[C@H](C)[C@H]1OC2(C=C[C@@H]1C)C[C@@H]1C[C@@H](C/C=C(\C)[C@@H](OC3CC(OC)C(OC(=O)C(C)(C)n4nc(C)cc4C)C(C)O3)[C@@H](C)/C=C/C=C3\CO[C@@H]4[C@H](O)C(C)=CC(C(=O)O1)[C@]34O)O2 (stereo partly drawn) [Example 19] | – | Kill rate in % after 2 days [1, 7]: 100% |
| CC[C@H](C)[C@H]1OC2(C=C[C@@H]1C)C[C@@H]1C[C@@H](C/C=C(\C)[C@@H](OC3CC(OC)C(OC(=O)C(C)(C)n4cncn4)C(C)O3)[C@@H](C)/C=C/C=C3\CO[C@@H]4[C@H](O)C(C)=CC(C(=O)O1)[C@]34O)O2 (stereo partly drawn) [Example 20] | 100 | Kill rate in % after 7 days ([2]; Example D): 80% |
| CC[C@H](C)[C@H]1OC2(C=C[C@@H]1C)C[C@@H]1C[C@@H](C/C=C(\C)[C@@H](OC3CC(OC)C(OC(=O)Cc4nonc4C)C(C)O3)[C@@H](C)/C=C/C=C3\CO[C@@H]4[C@H](O)C(C)=CC(C(=O)O1)[C@]34O)O2 (stereo partly drawn) [Example 25] | 95 | – |
| CC[C@H](C)[C@H]1OC2(C=C[C@@H]1C)C[C@@H]1C[C@@H](C/C=C(\C)[C@@H](OC3CC(OC)C(OC(=O)Cc4c(C)nn(C)c4C)C(C)O3)[C@@H](C)/C=C/C=C3\CO[C@@H]4[C@H](O)C(C)=CC(C(=O)O1)[C@]34O)O2 (stereo partly drawn) [Example 26] | 100 | – |
| CC[C@H](C)[C@H]1OC2(C=C[C@@H]1C)C[C@@H]1C[C@@H](C/C=C(\C)[C@@H](OC3CC(OC)C(OC(=O)Cc4sccc4C)C(C)O3)[C@@H](C)/C=C/C=C3\CO[C@@H]4[C@H](O)C(C)=CC(C(=O)O1)[C@]34O)O2 (stereo partly drawn) [Example 27] | 100 | – |
| CC[C@H](C)[C@H]1OC2(C=C[C@@H]1C)C[C@@H]1C[C@@H](C/C=C(\C)[C@@H](OC3CC(OC)C(OC(=O)C(C)n4cccn4)C(C)O3)[C@@H](C)/C=C/C=C3\CO[C@@H]4[C@H](O)C(C)=CC(C(=O)O1)[C@]34O)O2 (stereo partly drawn) [Example 48] | 100 | Kill rate in % after 2 days ([3]; 100 ppm active compound): 100%; Kill rate in % after 5 days [4]: 100%; Kill rate in % after 7 days ([2]; Example G): 100% |
| CC[C@H](C)[C@H]1OC2(C=C[C@@H]1C)C[C@@H]1C[C@@H](C/C=C(\C)[C@@H](OC3CC(OC)C(OC(=O)C(C)N4CCOCC4)C(C)O3)[C@@H](C)/C=C/C=C3\CO[C@@H]4[C@H](O)C(C)=CC(C(=O)O1)[C@]34O)O2 (stereo partly drawn) [Example 52, 4′-O-(2-morpholin-4-ylpropanoyl)-avermectin B1 monosaccharide] | 100 | Kill rate in % after 2 days [5]: 50%; Kill rate in % after 5 days [4]: 100%; Kill rate in % after 7 days ([2]; Example G): 100% |
| CC[C@H](C)[C@H]1OC2(C=C[C@@H]1C)C[C@@H]1C[C@@H](C/C=C(\C)[C@@H](OC3CC(OC)C(OC(=O)CN(C)C(=O)OC(C)(C)C)C(C)O3)[C@@H](C)/C=C/C=C3\CO[C@@H]4[C@H](O)C(C)=CC(C(=O)O1)[C@]34O)O2 (stereo partly drawn) [Example 55] | 90 | Kill rate in % after 2 days ([3]; 100 ppm active compound): 90% |
| CCC(C)C1OC2(C=CC1C)CC1CC(CC=C(C)C(OC3CC(OC)C(OC(=O)C4C(C=C(Cl)Cl)C4(C)C)C(C)O3)C(C)C=CC=C3COC4C(O)C(C)=CC(C(=O)O1)C34O)O2 (stereo not drawn) [Example 89] | – | Kill rate in % after 2 days ([3]; 100 ppm active compound): 100% |
| CCC(C)C1OC2(C=CC1C)CC1CC(CC=C(C)C(OC3CC(OC)C(OC(=O)C(=NOC)c4ccc(Cl)cc4Cl)C(C)O3)C(C)C=CC=C3COC4C(O)C(C)=CC(C(=O)O1)C34O)O2 (stereo not drawn) [Example 90] | – | Kill rate in % after 2 days ([3]; 100 ppm active compound): 100% |
| CC[C@H](C)[C@H]1OC2(C=C[C@@H]1C)C[C@@H]1C[C@@H](C/C=C(\C)[C@@H](OC3CC(OC)C(OC(=O)Cc4nc(-c5cccs5)sc4C)C(C)O3)[C@@H](C)/C=C/C=C3\CO[C@@H]4[C@H](O)C(C)=CC(C(=O)O1)[C@]34O)O2 (stereo partly drawn) [Example 91] | – | Kill rate in % after 2 days ([3]; 100 ppm active compound): 90% |
| CC[C@H](C)[C@H]1OC2(C=C[C@@H]1C)C[C@@H]1C[C@@H](C/C=C(\C)[C@@H](OC3CC(OC)C(OC(=O)Cc4ccc(Cl)cc4)C(C)O3)[C@@H](C)/C=C/C=C3\CO[C@@H]4[C@H](O)C(C)=CC(C(=O)O1)[C@]34O)O2 (stereo partly drawn) [Example 94] | – | Kill rate in % after 2 days ([3]; 100 ppm active compound): 80% |
| CC[C@H](C)[C@H]1OC2(C=C[C@@H]1C)C[C@@H]1C[C@@H](C/C=C(\C)[C@@H](OC3CC(OC)C(OC(=O)C(C)C)C(C)O3)[C@@H](C)/C=C/C=C3\CO[C@@H]4[C@H](O)C(C)=CC(C(=O)O1)[C@]34O)O2 (stereo partly drawn) [Example 98, 4′-O-Isobutyryl-avermectin B1 monosaccharide] | 95 | – |
